Results from ChEMBL document CHEMBL1681652, “Synthesis and evaluation of 2-phenyl-1,4-butanediamine-based CCR5 antagonists for the treatment of HIV-1” (Bioorg Med Chem Lett, 2011).
pIC50: −log10 of the molar value.

What was measured:
[1] = tested on: Human immunodeficiency virus 1; assay: Antiviral activity against HIV1 Ba-L infected in human HOS cells expressing CCR5 after 4 days; format: functional, organism-based
[2] = target: Voltage-gated inwardly rectifying potassium channel KCNH2 (Homo sapiens, UniProt Q12809); assay: Displacement of labeled dofetilide from human ERG
[3] = tested on: Human immunodeficiency virus 1; assay: Antiviral activity against HIV1 Ba-L infected in human PBL cells assessed as reverse transcriptase activity after 7 days; format: functional, organism-based; conditions: Human immunodeficiency virus 1, Ba-L, 168 h
[4] = Half life in human hepatocytes; format: ADME, cell-based, Liver, Hepatocyte
[5] = Oral bioavailability in Sprague-Dawley rat at 1 mg/kg; format: ADME, organism-based; conditions: in vivo
[6] = Half life in rat hepatocytes; format: ADME, cell-based, Liver, Hepatocyte
[7] = tested on: Rattus norvegicus; assay: AUC in Sprague-Dawley rat at 1 mg/kg, iv and po; format: ADME, organism-based, Plasma; set-up: dose 1 mg/kg, route oral; unit not given here; conditions: in vivo
[8] = Apparent permeability across MDCK cells; format: ADME, cell-based, Canis lupus familiaris; conditions: dog
[9] = Human immunodeficiency virus 1, Ba-L, HOS, 96 h

Sequence of Voltage-gated inwardly rectifying potassium channel KCNH2 (Q12809 whole entry): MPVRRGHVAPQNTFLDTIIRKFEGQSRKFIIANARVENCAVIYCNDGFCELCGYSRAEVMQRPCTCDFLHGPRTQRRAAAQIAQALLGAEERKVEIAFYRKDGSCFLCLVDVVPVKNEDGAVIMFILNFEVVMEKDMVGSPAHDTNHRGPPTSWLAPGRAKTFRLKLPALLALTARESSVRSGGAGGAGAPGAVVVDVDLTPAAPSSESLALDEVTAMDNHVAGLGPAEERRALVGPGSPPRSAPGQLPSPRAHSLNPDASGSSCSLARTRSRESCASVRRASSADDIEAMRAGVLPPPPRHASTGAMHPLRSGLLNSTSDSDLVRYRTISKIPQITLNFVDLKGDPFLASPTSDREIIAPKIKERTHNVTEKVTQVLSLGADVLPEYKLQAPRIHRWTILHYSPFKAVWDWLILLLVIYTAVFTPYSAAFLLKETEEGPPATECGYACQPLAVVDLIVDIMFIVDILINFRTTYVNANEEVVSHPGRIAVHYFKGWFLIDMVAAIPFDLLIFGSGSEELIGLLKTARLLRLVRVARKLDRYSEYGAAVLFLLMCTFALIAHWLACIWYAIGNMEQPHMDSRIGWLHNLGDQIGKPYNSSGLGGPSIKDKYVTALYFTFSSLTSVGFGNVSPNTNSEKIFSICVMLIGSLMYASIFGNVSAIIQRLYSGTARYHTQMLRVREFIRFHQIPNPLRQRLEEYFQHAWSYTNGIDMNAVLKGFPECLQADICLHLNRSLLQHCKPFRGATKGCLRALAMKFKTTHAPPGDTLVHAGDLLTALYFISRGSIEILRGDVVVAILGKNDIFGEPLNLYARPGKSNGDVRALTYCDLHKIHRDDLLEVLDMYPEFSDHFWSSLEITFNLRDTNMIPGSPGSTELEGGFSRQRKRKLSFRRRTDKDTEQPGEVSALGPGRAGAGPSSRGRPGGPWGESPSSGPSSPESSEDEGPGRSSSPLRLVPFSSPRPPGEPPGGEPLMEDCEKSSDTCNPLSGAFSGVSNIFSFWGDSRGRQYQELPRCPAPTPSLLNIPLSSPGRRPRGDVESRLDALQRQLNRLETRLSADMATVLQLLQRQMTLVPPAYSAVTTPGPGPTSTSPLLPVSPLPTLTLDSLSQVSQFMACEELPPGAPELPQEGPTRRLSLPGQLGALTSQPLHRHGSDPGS

Which results are given for Cc1nnc(C(C)C)n1[C@H]1C[C@H]2CC[C@@H](C1)N2CCC(CNC(=O)C1CCC(F)(F)CC1)c1ccccc1 (mixture of isomers) [listing 1 of 2 here]?
pIC50 ([1]; hos): 6.06; pIC50 [2]: ≤ 5.00

With Cn1nc(Cc2ccccc2)cc1C1CCN(CCC(CNS(=O)(=O)c2ccccc2)c2ccccc2)CC1 (racemic) as the compound, how does the pIC50 [1, 9] read?
Its pIC50 is 7.06.

With Cc1nnc(C(C)C)n1C1CCN(CCC(CNS(=O)(=O)c2ccccc2)c2ccccc2)CC1 (racemic) as the compound, how does the pIC50 [1, 9] read?
Its pIC50 is 6.00.

With Cc1nnc(-c2ccccc2)n1C1CCN(CCC(CNS(=O)(=O)c2ccccc2)c2ccccc2)CC1 (racemic) as the compound, how does the pIC50 [1, 9] read?
The pIC50 was 5.30.

What does the source list for CCc1nc(Cc2ccccc2)cn1C1CCN(CCC(CNS(=O)(=O)c2ccccc2)c2ccccc2)CC1 (racemic)?
pIC50 [1, 9]: 7.35; pIC50 [3]: 7.37

With Cc1nc2ccccc2n1C1CCN(CCC(CNS(=O)(=O)c2ccccc2)c2ccccc2)CC1 (racemic) as the compound, how does the pIC50 [1, 9] read?
The pIC50 was 6.44.

Which results are given for Cc1cc(OS(=O)(=O)c2ccccc2)cc(C)c1C(=O)N1C[C@H]2CN(CCC(CNS(=O)(=O)c3ccccc3)c3ccccc3)C[C@H]2C1 (mixture of isomers)?
half-life [4]: ≤ 20 min; pIC50 [1, 9]: 8.10; bioavailability [5]: 2%; half-life [6]: ≤ 20 min; AUC [7]: 10; pIC50 [3]: 9.00

For Cc1nc2ccccc2n1C1CC2CCC(C1)N2CCC(CN(C)S(=O)(=O)c1ccccc1)c1ccccc1 (racemic), which half-life [4] is on record?
The half-life was ≤ 20 min.

And the pIC50 [1, 9]?
Its pIC50 is 8.10.

And the bioavailability [5]?
Its bioavailability is 5%.

What about the half-life [6] of the same compound?
Its half-life is ≤ 20 min.

And the AUC [7]?
Its AUC is 40.

And the pIC50 [3]?
The pIC50 was 7.22.

With Cc1nc2ccccc2n1C1CC2CCC(C1)N2CCC(CNS(=O)(=O)c1ccccc1)c1ccccc1 (racemic) as the compound, how does the pIC50 [1, 9] read?
The pIC50 was 7.19.

What about the pIC50 [3] of the same compound?
Its pIC50 is 6.95.

Which results are given for Cc1nc2ccccc2n1C1CC2CCC(C1)N2CCC(CNS(=O)(=O)c1cccc(C(N)=O)c1)c1ccccc1 (racemic)?
pIC50 [1, 9]: 7.80; pIC50 [3]: 6.79

With Cc1nc2ccccc2n1C1CC2CCC(C1)N2CCC(CN(C)C(=O)C1CCC(F)(F)CC1)c1ccccc1 (racemic) as the compound, how does the pIC50 [1, 9] read?
Its pIC50 is 6.28.

With Cc1nc2ccccc2n1C1CC2CCC(C1)N2CCC(CNC(=O)C1CCC(F)(F)CC1)c1ccccc1 (racemic) as the compound, how does the pIC50 [1, 9] read?
Its pIC50 is 6.39.

What does the source list for Cc1nc2ccccc2n1C1CC2CCC(C1)N2CCC(CNS(C)(=O)=O)c1ccccc1 (racemic)?
pIC50 [1, 9]: 7.64; pIC50 [3]: 7.00

With Cc1nc2ccccc2n1C1CC2CCC(C1)N2CCC(CNS(=O)(=O)N1CCOCC1)c1ccccc1 (racemic) as the compound, how does the pIC50 [1, 9] read?
The pIC50 was 7.89.

With CC(=O)NCC(CCN1C2CCC1CC(n1c(C)nc3ccccc31)C2)c1ccccc1 (racemic) as the compound, how does the pIC50 [1, 9] read?
Its pIC50 is 6.06.

With COP(=O)(NCC(CCN1C2CCC1CC(n1c(C)nc3ccccc31)C2)c1ccccc1)OC (racemic) as the compound, how does the pIC50 [1, 9] read?
The pIC50 was 7.11.

With Cc1nc2ccncc2n1[C@H]1C[C@H]2CC[C@@H](C1)N2CCC(CNS(=O)(=O)c1ccccc1)c1ccccc1 (mixture of isomers) as the compound, how does the pIC50 [1, 9] read?
The pIC50 was 7.42.

What does the source list for CC(=O)N1CCc2nc(C)n([C@H]3C[C@H]4CC[C@@H](C3)N4CCC(CNS(=O)(=O)c3ccccc3)c3ccccc3)c2C1 (mixture of isomers)?
half-life [4]: ≤ 20 min; pIC50 [1, 9]: 8.52; bioavailability [5]: < 1%; half-life [6]: ≤ 20 min; AUC [7]: 0; pIC50 [3]: 9.00

With Cc1nnc(C(C)C)n1[C@H]1C[C@H]2CC[C@@H](C1)N2CCC(CNC(=O)C1CCC(F)(F)CC1)c1ccccc1 (mixture of isomers) [listing 2 of 2 here] as the compound, how does the pIC50 ([1]; hos) read?
Its pIC50 is 5.01.

With Cc1nnc(C(C)C)n1[C@H]1C[C@H]2CC[C@@H](C1)N2CCC(CNC(=O)C1CC(F)(F)C1)c1ccccc1 (mixture of isomers) as the compound, how does the pIC50 [1, 9] read?
The pIC50 was < 4.70.

With Cc1nnc(C(C)C)n1[C@H]1C[C@H]2CC[C@@H](C1)N2CCC(CNC(=O)c1ccccc1)c1ccccc1 (mixture of isomers) as the compound, how does the pIC50 [1, 9] read?
Its pIC50 is < 4.70.

And the pIC50 [2]?
The pIC50 was ≤ 5.00.

Which half-life [4] does the source give for Cc1nc2ccccc2n1[C@H]1C[C@H]2CC[C@@H](C1)N2CCC(C)(CN(C)S(=O)(=O)c1ccccc1)c1ccccc1 (mixture of isomers) here?
The half-life was ≤ 20 min.

What about the pIC50 [1, 9] of the same compound?
The pIC50 was 8.05.

And the bioavailability [5]?
The bioavailability was < 1%.

What about the half-life [6] of the same compound?
The half-life was ≤ 20 min.

What about the Papp [8] of the same compound?
Its Papp is 70 nm/s.

And the AUC [7]?
Its AUC is 0.

What about the pIC50 [3] of the same compound?
Its pIC50 is 9.00.

With Cc1nc2ccccc2n1[C@H]1C[C@H]2CC[C@@H](C1)N2CCC(C)(CNS(=O)(=O)c1ccccc1)c1ccccc1 (mixture of isomers) as the compound, how does the pIC50 [1, 9] read?
Its pIC50 is 6.91.

With Cc1nnc(C(C)C)n1[C@@H]1C[C@H]2CC[C@@H](C1)N2CCC(C)(CNS(=O)(=O)c1ccccc1)c1ccccc1 (mixture of isomers) as the compound, how does the pIC50 [1, 9] read?
The pIC50 was 6.24.

With Cc1nc2ccccc2n1[C@H]1C[C@H]2CC[C@@H](C1)N2CCC(C)(CN(C)C(=O)C1CCC(F)(F)CC1)c1ccccc1 (mixture of isomers) as the compound, how does the pIC50 [1, 9] read?
Its pIC50 is 6.63.

With Cc1nc2ccccc2n1[C@H]1C[C@H]2CC[C@@H](C1)N2CCC(C)(CNC(=O)C1CCC(F)(F)CC1)c1ccccc1 (mixture of isomers) as the compound, how does the pIC50 [1, 9] read?
The pIC50 was 6.60.

With Cc1nnc(C(C)C)n1[C@@H]1C[C@H]2CC[C@@H](C1)N2CCC(C)(CNC(=O)C1CCC(F)(F)CC1)c1ccccc1 (mixture of isomers) as the compound, how does the pIC50 [1, 9] read?
The pIC50 was 6.23.

With Cc1nc2ccccc2n1[C@@H]1C[C@H]2CC[C@@H](C1)N2CCC(CNS(=O)(=O)c1ccccc1)c1ccccc1 (mixture of isomers) as the compound, how does the pIC50 [1, 9] read?
The pIC50 was 6.93.

With Cc1nnc(C(C)C)n1[C@H]1C[C@H]2CC[C@@H](C1)N2CCC(CNS(=O)(=O)c1ccccc1)c1ccccc1 (racemic; 14a) as the compound, how does the pIC50 ([1]; hos) read?
Its pIC50 is 6.32.

What about the pIC50 [2] of the same compound?
Its pIC50 is ≤ 5.00.

With Cc1nnc(C(C)C)n1[C@H]1C[C@H]2CC[C@@H](C1)N2CCC(CNS(=O)(=O)c1ccccc1)c1ccccc1 (racemic; 14b) as the compound, how does the pIC50 ([1]; hos) read?
The pIC50 was 6.84.
